Results published in patent publication US20250099431A1, “GLP-1R MODULATING COMPOUNDS” (priority 2020, published 2025).

Legend:
[1] = Microsomal stability (liver microsomal assay, mixed cofactors); predicted hepatic clearance; type: in vitro ADME; details: liver microsomes 1.0 mg protein/mL (+UDPGA +NADPH), 1 μM analyte, 37° C.; scaled with human liver weight and hepatic blood flow 1.3 L/hr/kg
In short: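 Compound at 1 μM with human or rat pooled liver microsomes, alamethicin-treated, pH 7.4 phosphate, NADPH-regenerating plus UDPGA cofactors, 37° C, sampled 0–70 min. Parent/internal standard ratio by RapidFire QToF MS; half-life from initial log-linear decay, scaled to intrinsic and predicted hepatic clearance and hepatic extraction.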

GLP-1R = GLP-1R (Homo sapiens (Human), UniProt P43220); assay: GLP-1R activation: cAMP increase in CHO cells stably expressing GLP-1R; type: cell-based; details: cAMP increase, 10 point dose response, 30 minutes incubation at 37° C., read-out: EC50
Chain of GLP-1R (P43220 24-463): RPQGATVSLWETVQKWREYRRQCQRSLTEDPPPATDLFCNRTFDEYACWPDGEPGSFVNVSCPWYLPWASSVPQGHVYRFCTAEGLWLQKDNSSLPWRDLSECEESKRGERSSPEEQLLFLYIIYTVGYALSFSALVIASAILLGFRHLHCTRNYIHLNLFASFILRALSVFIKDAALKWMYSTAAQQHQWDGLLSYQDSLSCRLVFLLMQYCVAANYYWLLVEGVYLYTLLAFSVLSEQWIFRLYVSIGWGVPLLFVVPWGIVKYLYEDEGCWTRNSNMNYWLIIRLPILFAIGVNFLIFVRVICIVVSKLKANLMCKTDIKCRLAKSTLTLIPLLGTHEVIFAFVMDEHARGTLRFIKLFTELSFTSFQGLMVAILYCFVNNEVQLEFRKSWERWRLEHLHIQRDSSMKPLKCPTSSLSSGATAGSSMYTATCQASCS
In short: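 CHO cells stably expressing GLP-1R were incubated 1 h at 37 °C in medium with 1% BSA, then exposed to compound in a 10-point dose response for 30 min at 37 °C. cAMP rise was detected by HTRF (Gs Dynamic kit). EC50 came from a sigmoidal fit of response against log agonist concentration.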

CC1(c2ccc(Cl)cc2F)Oc2cccc(-c3ccc(Cc4nc5ccc(C(=O)O)cc5n4C[C@@H]4CCO4)cc3F)c2O1 (stereo partly drawn) [Example 15, 2-(4-(2-(4-chloro-2-fluorophenyl)-2-methylbenzo[d][1, 3]dioxol-4-yl)-3-fluorobenzyl)-1-(((S)-oxetan-2-yl)methyl)-1H-benzo[d]imidazole-6-carboxylic acid]
Predicted Hepatic Clearance (Pred. Cl.) [1]: 4.5 mL/min/kg
EC50 (GLP-1R): 0.015 nM

COCCn1c(Cc2c(F)cc(-c3cccc4c3OC3(c5ccc(Cl)cc5)CCCN43)cc2F)nc2ccc(C(=O)O)cc21 (stereo not drawn) [Example 16, 2-(4-(3a-(4-chlorophenyl)-1,2,3,3a-tetrahydrobenzo[d]pyrrolo[2,1-b]oxazol-5-yl)-2,6-difluorobenzyl)-1-(2-methoxyethyl)-1H-benzo[d]imidazole-6-carboxylic acid]
Predicted Hepatic Clearance (Pred. Cl.) [1]: 9 mL/min/kg
EC50 (GLP-1R): 6920 nM

COCCn1c(Cc2c(F)cc(-c3cccc4c3OC3(c5ccc(Cl)cc5)CCC(=O)N43)cc2F)nc2ccc(C(=O)O)cc21 (stereo not drawn) [Example 17, 2-(4-(3a-(4-chlorophenyl)-1-oxo-1,2,3,3a-tetrahydrobenzo[d]pyrrolo[2,1-b]oxazol-5-yl)-2,6-difluorobenzyl)-1-(2-methoxyethyl)-1H-benzo[d]imidazole-6-carboxylic acid]
Predicted Hepatic Clearance (Pred. Cl.) [1]: 7.33 mL/min/kg
EC50 (GLP-1R): 10000 nM

CC1(c2ccc(Cl)cc2F)Oc2cccc(-c3cc(F)c(Cc4nc5ccc(C(=O)O)cc5n4C[C@@H]4CCO4)c(C#N)c3)c2O1 (stereo partly drawn) [Example 18, 2-(4-(2-(4-chloro-2-fluorophenyl)-2-methylbenzo[d][1, 3]dioxol-4-yl)-2-cyano-6-fluorobenzyl)-1-(((S)-oxetan-2-yl)methyl)-1H-benzo[d]imidazole-6-carboxylic acid]
Predicted Hepatic Clearance (Pred. Cl.) [1]: 8 mL/min/kg
EC50 (GLP-1R): 0.14 nM

COCCn1c(Cc2c(F)cc(-c3cccc4c3OC(C)(c3ccc(Cl)cc3F)O4)cc2F)nc2ccc(C(=O)O)cc21 (stereo not drawn) [Example 19, 2-(4-(2-(4-chloro-2-fluorophenyl)-2-methylbenzo[d][1, 3]dioxol-4-yl)-2,6-difluorobenzyl)-1-(2-methoxyethyl)-1H-benzo[d]imidazole-6-carboxylic acid]
Predicted Hepatic Clearance (Pred. Cl.) [1]: 2.5 mL/min/kg
EC50 (GLP-1R): 0.97 nM

CC1(c2ccc(Cl)cc2F)Oc2cccc(-c3cc(F)c(Cc4nc5ccc(C(=O)O)cc5n4C[C@@H]4CCO4)c(F)c3F)c2O1 (stereo partly drawn) [Example 20, 2-(4-(2-(4-chloro-2-fluorophenyl)-2-methylbenzo[d][1, 3]dioxol-4-yl)-2,3,6-trifluorobenzyl)-1-(((S)-oxetan-2-yl)methyl)-1H-benzo[d]imidazole-6-carboxylic acid]
Predicted Hepatic Clearance (Pred. Cl.) [1]: 2.5 mL/min/kg
EC50 (GLP-1R): 0.089 nM

CC1(c2ccc(Cl)cc2F)Oc2cccc(-c3cc(F)c(Cc4nc5ccc(C(=O)O)nc5n4CC4(CF)CC4)c(F)c3)c2O1 (stereo not drawn) [Example 21, 2-(4-(2-(4-chloro-2-fluorophenyl)-2-methylbenzo[d][1, 3]dioxol-4-yl)-2,6-difluorobenzyl)-3-((1-(fluoromethyl)cyclo-propyl)methyl)-3H-imidazo[4,5-b]pyridine-5-carboxylic acid]
Predicted Hepatic Clearance (Pred. Cl.) [1]: <1.83 mL/min/kg
EC50 (GLP-1R): 0.86 nM

CC1(c2ccc(Cl)cc2F)Oc2cccc(-c3cc(F)c(Cc4nc5ccc(C(=O)O)cc5n4C[C@@H]4CCO4)c(F)c3)c2O1 (stereo partly drawn) [Example 22, 2-(4-(2-(4-chloro-2-fluorophenyl)-2-methylbenzo[d][1, 3]dioxol-4-yl)-2,6-difluorobenzyl)-1-(((S)-oxetan-2-yl)methyl)-1H-benzo[d]imidazole-6-carboxylic acid]
Predicted Hepatic Clearance (Pred. Cl.) [1]: <1.83 mL/min/kg
EC50 (GLP-1R): 0.024 nM

CC1(c2ccc(Cl)cc2F)Oc2cccc(-c3ccc(Cc4nc5ccc(C(=O)O)cc5n4C[C@@H]4CCO4)c(F)c3)c2O1 (stereo partly drawn) [Example 23, 2-(4-(2-(4-chloro-2-fluorophenyl)-2-methylbenzo[d][1, 3]dioxol-4-yl)-2-fluorobenzyl)-1-(((S)-oxetan-2-yl)methyl)-1H-benzo[d]imidazole-6-carboxylic acid]
Predicted Hepatic Clearance (Pred. Cl.) [1]: 2.33 mL/min/kg
EC50 (GLP-1R): 0.49 nM

CC1(c2ccc(Cl)cn2)Oc2cccc(-c3cc(F)c(Cc4nc5ccc(C(=O)O)cc5n4CC4(CC#N)CC4)c(F)c3)c2O1 (stereo not drawn) [Example 24, 2-(4-(2-(5-chloropyridin-2-yl)-2-methylbenzo[d][1, 3]dioxol-4-yl)-2,6-difluorobenzyl)-1-((1-(cyanomethyl)cyclo-propyl)methyl)-1H-benzo[d]imidazole 6-carboxylic acid]
Predicted Hepatic Clearance (Pred. Cl.) [1]: 2.67 mL/min/kg
EC50 (GLP-1R): 1.7 nM

CC1(c2ccc(C#N)cc2F)Oc2cccc(-c3cc(F)c(Cc4nc5ccc(C(=O)O)cc5n4C[C@@H]4CCO4)cc3F)c2O1 (stereo partly drawn) [Example 25, 2-(4-(2-(4-cyano-2-fluorophenyl)-2-methylbenzo[d][1, 3]dioxol-4-yl)-2,5-difluorobenzyl)-1-(((S)-oxetan-2-yl)methyl)-1H-benzo[d]imidazole-6-carboxylic acid]
Predicted Hepatic Clearance (Pred. Cl.) [1]: 4.33 mL/min/kg
EC50 (GLP-1R): 0.3 nM

CC1(c2ccc(Cl)cn2)Oc2cccc(-c3ccn(Cc4nc5ccc(C(=O)O)cc5n4C[C@@H]4CCO4)c(=O)c3)c2O1 (stereo partly drawn) [Example 26, 2-((4-(2-(5-chloropyridin-2-yl)-2-methylbenzo[d][1, 3]dioxol-4-yl)-2-oxopyridin-1(2H)-yl)methyl)-1-(((S)-oxetan-2-yl)methyl)-1H-benzo[d]imidazole-6-carboxylic acid]
Predicted Hepatic Clearance (Pred. Cl.) [1]: <1.83 mL/min/kg
EC50 (GLP-1R): 37 nM

CC1(c2ccc(Cl)cn2)Oc2cccc(-c3cc(F)c(Cc4nc5ccc(C(=O)O)cc5n4C[C@@H]4CCO4)c(F)c3)c2O1 (stereo partly drawn) [Example 27, 2-(4-(2-(5-chloropyridin-2-yl)-2-methylbenzo[d][1, 3]dioxol-4-yl)-2,6-difluorobenzyl)-1-(((S)-oxetan-2-yl)methyl)-1H-benzo[d]imidazole-6-carboxylic acid]
Predicted Hepatic Clearance (Pred. Cl.) [1]: 2.33 mL/min/kg
EC50 (GLP-1R): 0.53 nM

CC1(c2ccc(Cl)cc2F)Oc2cccc(-c3cc(F)c(Cc4nc5ccc(C(=O)O)cc5n4C[C@@H]4CCO4)cc3F)c2O1 (stereo partly drawn) [Example 28, 2-(4-(2-(4-chloro-2-fluorophenyl)-2-methylbenzo[d][1, 3]dioxol-4-yl)-2,5-difluorobenzyl)-1-(((S)-oxetan-2-yl)methyl)-1H-benzo[d]imidazole-6-carboxylic acid]
Predicted Hepatic Clearance (Pred. Cl.) [1]: 3.83 mL/min/kg
EC50 (GLP-1R): 0.034 nM

CC1(c2ccc(Cl)cn2)Oc2cccc(-c3cc(F)c(Cc4nc5ccc(C(=O)O)cc5n4C[C@@H]4CCO4)cc3F)c2O1 (stereo partly drawn) [Example 29, 2-(4-(2-(5-chloropyridin-2-yl)-2-methylbenzo[d][1, 3]dioxol-4-yl)-2,5-difluorobenzyl)-1-(((S)-oxetan-2-yl)methyl)-1H-benzo[d]imidazole-6-carboxylic acid]
Predicted Hepatic Clearance (Pred. Cl.) [1]: 4.67 mL/min/kg
EC50 (GLP-1R): 0.076 nM

N#Cc1ccc(C2Oc3cccc(-c4cc(F)c(Cc5nc6ccc(C(=O)O)cc6n5C[C@@H]5CCO5)c(F)c4)c3O2)c(F)c1 (stereo partly drawn) [Example 30, (S)-2-(4-(2-(4-cyano-2-fluorophenyl)benzo [d][1,3]dioxol-4-yl)-2,6-difluorobenzyl)-1-(oxetan-2-ylmethyl)-1H-benzo[d]imidazole-6-carboxylic acid]
Predicted Hepatic Clearance (Pred. Cl.) [1]: 3.5 mL/min/kg
EC50 (GLP-1R): 1.9 nM

COCCn1c(Cc2cc(F)c(-c3cccc4c3OC(c3ccc(C#N)cc3F)O4)cc2F)nc2ccc(C(=O)O)cc21 (stereo not drawn) [Example 31, 2-(4-(2-(4-cyano-2-fluorophenyl)benzo [d][1,3]dioxol-4-yl)-2,5-difluorobenzyl)-1-(2-methoxyethyl)-1H-benzo[d]imidazole-6-carboxylic acid]
Predicted Hepatic Clearance (Pred. Cl.) [1]: 3.17 mL/min/kg
EC50 (GLP-1R): 89 nM

COCCn1c(Cc2ccc(-c3cccc4c3OC(c3ccccc3)O4)cc2F)nc2ccc(C(=O)O)cc21 (stereo not drawn) [Example 32, 2-(2-fluoro-4-(2-phenylbenzo[d][1, 3]dioxol-4-yl)benzyl)-1-(2-methoxyethyl)-1H-benzo[d]imidazole-6-carboxylic acid]
Predicted Hepatic Clearance (Pred. Cl.) [1]: 6.33 mL/min/kg
EC50 (GLP-1R): 1920 nM

COCCn1c(Cc2ccc(-c3cccc4c3OC(C)(c3nc5ccccc5n3C)O4)cc2F)nc2ccc(C(=O)O)cc21 (stereo not drawn) [Example 52, 2-[[2-fluoro-4-[2-methyl-2-(1-methylbenzimidazol-2-yl)-1,3-benzodioxol-4-yl]phenyl]methyl]-3-(2-methoxyethyl) benzimidazole-5-carboxylic acid]
Predicted Hepatic Clearance (Pred. Cl.) [1]: 17.8 mL/min/kg
EC50 (GLP-1R): 2270 nM

CCC1(c2ccc(Cl)cc2F)Oc2cccc(-c3cc(F)c(Cc4nc5ccc(C(=O)O)cc5n4CCOC)c(F)c3)c2O1 (stereo not drawn) [Example 53, 2-(4-(2-(4-chloro-2-fluorophenyl)-2-ethylbenzo[d][1,3]dioxol-4-yl)-2,6-difluorobenzyl)-1-(2-methoxyethyl)-1H-benzo[d]imidazole-6-carboxylic acid]
Predicted Hepatic Clearance (Pred. Cl.) [1]: 13 mL/min/kg
EC50 (GLP-1R): 1290 nM

COCCn1c(Cc2c(F)cc(-c3cccc4c3OC3c5ccc(Cl)cc5OC43)cc2F)nc2ccc(C(=O)O)cc21 (stereo not drawn) [Example 54, 2-(4-(7-chloro-4b,9b-dihydrobenzofuro [3,2-b]benzofuran-1-yl)-2,6-difluorobenzyl)-1-(2-methoxyethyl)-1H-benzo[d]imidazole-6-carboxylic acid]
Predicted Hepatic Clearance (Pred. Cl.) [1]: 3 mL/min/kg
EC50 (GLP-1R): 628 nM
